Reference: paper PMC7893202 (Acta Pharmaceutica Sinica. B, 2020)

Biological target: T1, estrogen receptor-alpha (ERα) (Homo sapiens, UniProt P03372)
T1 sequence (P03372 311-547 limits assumed): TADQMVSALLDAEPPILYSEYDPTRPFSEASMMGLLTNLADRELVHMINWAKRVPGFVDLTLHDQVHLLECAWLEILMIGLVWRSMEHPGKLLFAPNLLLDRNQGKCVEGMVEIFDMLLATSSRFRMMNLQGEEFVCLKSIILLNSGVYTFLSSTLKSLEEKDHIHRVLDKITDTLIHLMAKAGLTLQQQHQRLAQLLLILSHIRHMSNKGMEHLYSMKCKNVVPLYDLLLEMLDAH
Assay: fluorescence titration
Assay type: binding

## Cc1cc(O)cc2oc3cc(O)cc(O)c3c(=O)c12 [compound 1, norlichexanthone]
  Kd: 10 nM
